For data set [1], the system named is Staphylococcus aureus ATCC43300, methicillin-resistant strain. Briefly: microbe, parasite or virus in culture. In kind it is cell-based. The note with it: ATCC 43300 / MRSA; Staphylococcus aureus ATCC43300 (MRSA); read-out: MIC S. a 43300. The essentials: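 Micro broth dilution (CLSI): TSB medium, twofold compound series, equal-volume bacterial suspension at 10^6 CFU/mL, incubation 37 °C for 24 h.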

Data set [2] has as its system Enterococcus faecalis ATCC51299, vancomycin-resistant strain. The experiment in a line: MIC, broth microdilution. In kind it is cell-based. The following applies: Enterococcus faecalis ATCC51299, vancomycin-resistant; read-out: MIC E. f. 51299. The essentials: (§1)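 Broth microdilution per CLSI: 2-fold serial compound dilutions in TSB broth, mixed with an equal volume of bacterial suspension at 10^6 CFU/mL. Incubated 37 °C for 24 h; experiments repeated three times.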

For data set [3], the system named is Enterococcus faecium ATCC51559, vancomycin-resistant strain. Briefly: MIC, broth microdilution. The following applies: Enterococcus faecium ATCC51559, vancomycin-resistant; read-out: MIC E. f. 51559. It counts as cell-based. The essentials: as §1
The test system of data set [4] is red blood cells. The experiment in a line: Hemolysis assay. It counts as cell-based, Sheep. The following applies: concentration required to lyse 50% of red blood cells; 37 °C, 1 h. The procedure:
All target derivatives were assessed for their in vitro antibacterial activities using a broth microdilution assay to test their minimum inhibitory concentrations (MICs) against six Gram-positive strains (S. aureus ATCC31007, S. aureus ATCC25923, S. aureus ATCC43300, E. faecalis ATCC29212, B. subtilis ATCC9372, and S. epidermidis ATCC12228) and four Gram-negative strains (A. baumannii ATCC19606, K. pneumonia ATCC10031, E. coli ATCC25922, and P. aeruginosa ATCC27853). These compounds were also evaluated for their hemolytic activities and membrane selectivity by determining their HC50 (the concentration required to lyse 50% of red blood cells) and SI (HC50/MICs) values, respectively, and vancomycin was used as the positive drug.
To further detect the hemolytic toxicity and therapeutic potential of these derivatives, we proceeded to examine the hemolytic activities and membrane selectivity of these derivatives. The HC50 value was defined as the concentration needed for a compound to lyse 50% of red blood cells, and it is often used to evaluate the hemolytic toxicity to eukaryotic cells. […] The selectivity index (SI) was calculated by HC50/MICs of S. aureus ATCC43300 and was used to assess the potency and safety of the compounds. […] Thus, compound 9h was selected as a representative molecule for the in-depth in vitro and in vivo studies.
Sheep blood was used to isolate red blood cells (RBCs), which were then resuspended in 1× PBS (5%). The compounds were dissolved in PBS to give an initial concentration of 5.12 mg/mL, compound solution (100 μL) was added to the first well of a 96-well plate, two-fold serial dilutions of compounds were prepared in 96-well plates, and then 150 μL of 5% RBC suspension was added to each well. This was followed by incubation at 37 °C for 1 h. After incubation, the plate was centrifuged (3500 rpm, 5 min), and 100 μL of supernatant solution from each well was carefully pipetted into a new plate. The absorbance values were measured at 540 nm. Erythrocyte hemolysis rate = (Absorbancecompound – Absorbance negative control)/(Absorbance1% Triton X-100 − Absorbance negative control) × 100%. All biological experiments were repeated three times.

A short description of data set [5]: In vitro cytotoxicity evaluation. In kind it is cell-based. The note with it: human, LO2 cells. The procedure:
A key component in the development of antimicrobial agents for clinical application is the assessment of their potential toxicity to mammalian cells. To assess the cytotoxic impact, compound 9h was chosen to undergo in vitro testing for its cytotoxic effects on LO2 cells.

The test system of data set [6] is S. aureus ATCC43300 biofilm formation. The procedure: Bacterial biofilms created by the aggregation of bacteria is considered as one of the main reasons for the development of drug resistance. […] Subsequently, we further assessed the efficiency of 9h to eradicate the preformed biofilm. Matured S. aureus biofilm (grown for 24 h) was treated with compound 9h, and the rate of biofilm disruption was then assessed by the crystal violet staining assay.
Biofilm inhibition assay: S. aureus ATCC43300 was cultured (37 °C, 200 rpm) in MHB broth for 5 h and diluted to 1 × 10^6 CFU/mL. […] The planktonic supernatant cells were discarded and washed with PBS three times. Then, methanol (150 µL) was added to each well for 30 min. After discarding methanol, 0.1% crystal violet solution (150 µL) was added, and biofilms were stained for 15 min. Next, crystal violet solution was removed and washed with PBS three times. Finally, ethanol (150 µL) was pipetted into the wells, and the OD values were measured at 575 nm. The biofilm inhibition (%) = (ODcompound − ODblank)/(ODpositive control − ODblank) × 100%.

Data set [7] deals with S. aureus ATCC43300. Briefly: Cell membrane permeabilization, PI uptake assay. It counts as cell-based. The note with it: 16 μg/mL, at 20 min. As for the experimental part: The cell membrane permeabilization of compound 9h against S. aureus ATCC43300 was assessed by PI uptake assay. PI could only pass through the impaired cell membrane and had been widely used to evaluate the cell membrane permeability. When the cell membranes were disrupted, PI entered into the cell membrane, leading to a significant improvement in fluorescence intensity. Therefore, the degree of membrane damage could be reflected by observing the fluorescence intensity in S. aureus. […] Compared with the control group, the fluorescence intensity (at 20 min) increased approximately 5-fold after the addition of 9h (16 μg/mL).
Mid-log S. aureus ATCC43300 was collected and then washed with PBS three times. Bacterial suspension (1.0 × 10^8 CFU/mL, 150 μL) was added to a black 96-well plate; following this, fluorescent dye PI (10 μM, 50 μL) was added to each well of plates, and they were preincubated in the dark for 30 min. After the incubation, the fluorescence intensity was detected every minute for 6 min using a microplate reader (λex/λem = 535 nm/615 nm). […] The fluorescence intensity was determined similarly for another 14 min. All biological experiments were repeated three times.

We go through one molecule from publication PMC11350758, “Development of Xanthoangelol-Derived Compounds with Membrane-Disrupting Effects against Gram-Positive Bacteria” (Antibiotics, 2024).

Converted amounts (≈) assume the structure as drawn. Read-outs that look alike come from different tables or passages of the source.

Consider `CC(=O)c1c(OCCCNCCCN2CCN(C)CC2)c2c(c3c1OC(C)(CCC=C(C)C)C=C3)OC(C)(CCC=C(C)C)C=C2` (stereo not drawn) [Compound 9h, 1-(2,8-Dimethyl-2,8-bis(4-methylpent-3-en-1-yl)-5-(3-((3-(4-methylpiperazin-1-yl)propyl)amino)propoxy)-2H,8H-pyrano [2,3-f]chromen-6-yl)ethan-1-one], for which the MIC came out at 2 µg/mL (≈ 3.15 µM) in data set [1], 8 µg/mL (≈ 12.6 µM) in data set [2] and 4 µg/mL (≈ 6.31 µM) in data set [3]. The molecule further came in with an HC50 in data set [4] of 98.0 µg/mL. The same molecule had an IC50 in data set [5] of 55 µg/mL (≈ 86.8 µM). The viability at 2 μg/mL in data set [5] (2 μg/mL, read-out: Cell Viability (%)) stood at 88.8%. In addition, the viability at 4 μg/mL in data set [5] (4 μg/mL, read-out: Cell Viability (%)) came out at 88.6%. Also, the viability at 8 μg/mL in data set [5] (8 μg/mL, read-out: Cell Viability (%)) stood at 82.6%. Also, the viability at 16 μg/mL in data set [5] (16 μg/mL, read-out: Cell Viability (%)) stood at 78.4%. The viability at 32 μg/mL in data set [5] (32 μg/mL, read-out: Cell Viability (%)) was determined as 71.4%. The viability at 64 μg/mL in data set [5] (64 μg/mL, read-out: Cell Viability (%)) was 58.1%. In data set [5] (128 μg/mL, read-out: Cell Viability (%)), the viability at 128 μg/mL is 19.7%. For the same molecule, the results for the “inhibition of S. aureus biofilm formation” value in data set [6] (1× MIC (2 μg/mL)) and in data set [6] (2× MIC) were 8.65% and 10.87%, respectively. Also, the “increase of PI fluorescence intensity vs control group” value in data set [7] was “approximately 5 fold”.

The term HC50 denotes the concentration giving 50% haemolysis. A low value points to more damage to red cells. For orientation: IC50 means the point on the concentration scale where inhibition reaches its midpoint. Lower therefore signals greater potency in that assay. Usually viability stands for a read-out of living cells in per cent, often relative to untreated cells.
